Reference: patent publication US6461997B1, “Triazole sulfones having herbicidal activity” (Monsanto Technology LLC, priority 1999, dated 2002)

Key:
POLCO (wild buckwheat) = experiment: Pre-emergence herbicidal activity, cool season; assay type: in vivo, Polygonum convolvulus; conditions: lowest tested rate with 80% or greater inhibition; rates 300, 100, 30, 10 g/ha; about 14 days
Method: (§1) Tables 5 to 8 summarize results of tests conducted as described below to determine the pre-emergence herbicidal activity, in the form of a GR80 value, of illustrative compounds of this invention. […] Compounds of the invention were typically applied at rates of 300, 100, 30, and 10 g/ha. Where herbicidal activity was evident but 80% inhibition was not achieved at the highest rate tested, an asterisk (*) is shown in the following tables.
(§2) The pre-emergence tests were conducted by the following procedure. Topsoil was sieved to pass through a 1.27 cm screen. Fertilizer was added to the topsoil and the mixture was then sterilized by heating. The topsoil mixture was placed in a pot and compacted to a depth of 1.0 to 1.25 cm from the top of the pot. Seeds of each of several monocotyledonous and dicotyledonous annual plant species were placed on top of the soil. Additional soil was subsequently placed over the seeds to level-fill the pot. A known amount of each test compound dissolved or suspended in an appropriate organic solvent was diluted with a 50:50 mix of acetone and water and applied to the surface of the soil. After treatment the plants were placed in a greenhouse where they received 0.64 cm of overhead irrigation. All subsequent watering consisted of a light overhead mist and/or subirrigation as needed for germination and growth. Tables 5 and 6 below relate to warm season plant species which were placed after pre-emergence treatment in a greenhouse with a 30/21° C. day/night temperature regime. Tables 7 and 8 below relates to cool season plant species placed after pre-emergence treatment in a greenhouse or growth chamber with an 18/13° C. day/night temperature regime.
(§3) Approximately 14 days after planting and treating, the plants were observed and herbicidal efficacy recorded as percent inhibition by comparison with untreated plants.
(§4) The plant species usually regarded as weeds which were utilized in the tests are identified in the tables below according to the following legend, in which “d” indicates a dicotyledonous species and “m” a monocotyledonous species. All monocotyledonous species included in the tests herein are grasses.

SASKR (russian thistle) = experiment: Pre-emergence herbicidal activity, cool season; assay type: in vivo, Salsola kali; conditions: lowest tested rate with 80% or greater inhibition; rates 300, 100, 30, 10 g/ha; about 14 days
Method: as §1, §2, §3, §4

[1] = system: LAMPU (purple deadnettle); experiment: Pre-emergence herbicidal activity, cool season; assay type: in vivo, Lamium purpureum; conditions: lowest tested rate with 80% or greater inhibition; rates 300, 100, 30, 10 g/ha; about 14 days
Method: as §1, §2, §3, §4

[2] = system: AGSST (creeping bentgrass); experiment: Pre-emergence herbicidal activity, cool season; assay type: in vivo, Agrostis stolonifera; conditions: GR80 = lowest tested rate (300, 100, 30, 10 g/ha) with 80% or greater inhibition; approx. 14 days after treating; 18/13° C.
Method: as §1, §2, §3, §4

SINAR (wild mustard) = experiment: Pre-emergence herbicidal activity, cool season; assay type: in vivo, Sinapis arvensis; conditions: lowest tested rate with 80% or greater inhibition; rates 300, 100, 30, 10 g/ha; about 14 days
Method: as §1, §2, §3, §4

[3] = system: PANMI (wild proso millet); experiment: Pre-emergence herbicidal activity, warm season; assay type: in vivo, Panicum miliaceum; conditions: GR80 = lowest tested rate (300, 100, 30, 10 g/ha) with 80% or greater inhibition; approx. 14 days after treating; 30/21° C.
Method: as §1, §2, §3, §4

[4] = system: GALAP (catchweed bedstraw); experiment: Pre-emergence herbicidal activity, cool season; assay type: in vivo, Galium aparine; conditions: lowest tested rate with 80% or greater inhibition; rates 300, 100, 30, 10 g/ha; about 14 days
Method: as §1, §2, §3, §4

[5] = system: VERPE (creeping speedwell); experiment: Pre-emergence herbicidal activity, cool season; assay type: in vivo, Veronica persicaria; conditions: lowest tested rate with 80% or greater inhibition; rates 300, 100, 30, 10 g/ha; about 14 days
Method: as §1, §2, §3, §4

STEME (common chickweed) = experiment: Pre-emergence herbicidal activity, cool season; assay type: in vivo, Stellaria media; conditions: lowest tested rate with 80% or greater inhibition; rates 300, 100, 30, 10 g/ha; about 14 days
Method: as §1, §2, §3, §4

SETVI (green foxtail) = experiment: Pre-emergence herbicidal activity, cool season; assay type: in vivo, Setaria viridis; conditions: GR80 = lowest tested rate (300, 100, 30, 10 g/ha) with 80% or greater inhibition; approx. 14 days after treating; 18/13° C.
Method: as §1, §2, §3, §4

[6] = system: CHEAL (common lambsquarters); experiment: Pre-emergence herbicidal activity, warm season; assay type: in vivo, Chenopodium album; conditions: GR80 = lowest tested rate (300, 100, 30, 10 g/ha) with 80% or greater inhibition; approx. 14 days after treating; 30/21° C.
Method: as §1, §2, §3, §4

ALOMY (blackgrass) = experiment: Pre-emergence herbicidal activity, cool season; assay type: in vivo, Alopecurus myosuroides; conditions: GR80 = lowest tested rate (300, 100, 30, 10 g/ha) with 80% or greater inhibition; approx. 14 days after treating; 18/13° C.
Method: as §1, §2, §3, §4

SOLNI (black nightshade) = experiment: Pre-emergence herbicidal activity, warm season; assay type: in vivo, Solanum nigrum; conditions: GR80 = lowest tested rate (300, 100, 30, 10 g/ha) with 80% or greater inhibition; approx. 14 days after treating; 30/21° C.
Method: as §1, §2, §3, §4

SETFA (giant foxtail) = experiment: Pre-emergence herbicidal activity, warm season; assay type: in vivo, Setaria faberi; conditions: GR80 = lowest tested rate (300, 100, 30, 10 g/ha) with 80% or greater inhibition; approx. 14 days after treating; 30/21° C.
Method: as §1, §2, §3, §4

[7] = system: SORHA (johnsongrass (seedling)); experiment: Pre-emergence herbicidal activity, warm season; assay type: in vivo, Sorghum halepense; conditions: GR80 = lowest tested rate (300, 100, 30, 10 g/ha) with 80% or greater inhibition; approx. 14 days after treating; 30/21° C.
Method: as §1, §2, §3, §4

ECHCG (barnyardgrass) = experiment: Pre-emergence herbicidal activity, warm season; assay type: in vivo, Echinochloa crus-galli; conditions: GR80 = lowest tested rate (300, 100, 30, 10 g/ha) with 80% or greater inhibition; approx. 14 days after treating; 30/21° C.
Method: as §1, §2, §3, §4

SMILES | Pre-emergence activity GR80, POLCO (POLCO (wild buckwheat)) | Pre-emergence activity GR80, SASKR (SASKR (russian thistle)) | Pre-emergence activity GR80, LAMPU [1] | Pre-emergence activity (GR80) AGSST [2] [g/ha] | Pre-emergence activity GR80, SINAR (SINAR (wild mustard)) | Pre-emergence activity (GR80) PANMI [3] [g/ha] | Pre-emergence activity GR80, GALAP [4] | Pre-emergence activity GR80, VERPE [5] | Pre-emergence activity GR80, STEME (STEME (common chickweed)) | Pre-emergence activity (GR80) SETVI (SETVI (green foxtail)) [g/ha] | Pre-emergence activity (GR80) CHEAL [6] [g/ha] | Pre-emergence activity (GR80) ALOMY (ALOMY (blackgrass)) [g/ha] | Pre-emergence activity (GR80) SOLNI (SOLNI (black nightshade)) [g/ha] | Pre-emergence activity (GR80) SETFA (SETFA (giant foxtail)) [g/ha] | Pre-emergence activity (GR80) SORHA [7] [g/ha] | Pre-emergence activity (GR80) ECHCG (ECHCG (barnyardgrass)) [g/ha]
C=CCN(C)C(=O)n1cnc(S(=O)(=O)C(F)(F)SCC)n1 [Example 53] | [empty] | [empty] | [empty] | 300 | [empty] | 300 | 300 g/ha | [empty] | [empty] | 300 | – | – | – | – | – | –
C=CCN(C)C(=O)n1cnc(S(=O)(=O)C(F)(F)C(F)F)n1 [Example 65] | 100 g/ha | [empty] | 100 g/ha | 300 | 300 g/ha | 300 | 30 g/ha | 100 g/ha | 300 g/ha | 100 | 300 | 100 | – | – | – | –
CN(Cc1ccccc1)C(=O)n1cnc(S(=O)(=O)C(F)(F)C(F)F)n1 [Example 68] | 300 g/ha | [empty] | [empty] | – | 300 g/ha | 300 | 300 g/ha | [empty] | [empty] | 300 | – | – | 300 | 300 | – | –
CN(C)C(=O)n1cnc(S(=O)(=O)C(F)(F)C(F)(F)Br)n1 [Example 73] | [empty] | 100 g/ha | 300 g/ha | 100 | 100 g/ha | 100 | 100 g/ha | 100 g/ha | 300 g/ha | 300 | – | – | – | – | 300 | 300
C#CCN(C)C(=O)n1cnc(S(=O)(=O)C(F)(F)C(F)(F)Br)n1 [Example 78] | [empty] | 100 g/ha | 100 g/ha | – | 30 g/ha | – | [empty] | 30 g/ha | [empty] | – | – | – | 300 | – | – | –
CN(C(=O)n1cnc(S(=O)(=O)C(F)(F)C(F)(F)Br)n1)C1CCCCC1 [Example 79] | 300 g/ha | [empty] | 100 g/ha | 100 | 300 g/ha | 300 | 300 g/ha | 30 g/ha | 100 g/ha | 300 | – | – | – | – | – | 300
